From patent US6624193B1, “Preventive and therapeutic agents for eye diseases” (Ono Pharmaceutical Co., Ltd., priority 1999, dated 2003)
Counter-ions that a name gives are not always drawn.

Legend:
[1] = tested on: Pseudomonas aeruginosa strain No. ho-134 corneal ulcer; assay: Effects on pyocyanic corneal ulcer (inoculation of Pseudomonas aeruginosa into corneal stroma, corneal ulcer score); type: in vivo, rabbit; settings: 50 μl four times a day
Method: Male Japanese albino rabbits each weighing about 2 kg purchased from KITAYAMA LABE S CO., LTD. were used. Each animal was maintained at a temperature of 23±3° C. and a humidity of 55±10%.
Compound A was given as a 1.0% Compound A eye drop formulation prepared by suspending Compound A in a formulation base (0.1% sodium acetate, 0.1% polysorbate 80 and 0.9% NaCl, pH 5.0). A 0.3% lomefloxacin (LFLX) hydrochloride was used as an. is antibacterial agent, and physiological saline *was used as a control.
After instilling 0.4% oxybuprocaine hydrochloride for a local anesthesia, a nictitating membrane was excised.
A causative microorganism used was a clinical isolate Pseudomonas aeruginosa strain No. ho-134. A rabbit was anesthetized systemically with 5% ketamine hydrochloride and 2% xylazine hydrochloride (equal volume mixture), and then inoculated by an infusion of 30 μl of a 3.9×10^4 CFU/ml cell suspension (1.17×10^3 CFU/cornea) using a 100 μl microsyringe fitted with a 30G needle into one corneal stroma of a rabbit.
An animal which had received an infusion of the cell suspension into the corneal stroma and whose inoculation was surely successful was grouped into one of [1] physiological saline instillation group (control, n=6) and [2]1.0% Compound A instillation group (Compound A group, n=6) as groups whose therapy was started immediately after the inoculation, and [3]1.0% Compound A instillation group (late Compound A group, n=5), [4]0.3% LFLX instillation group (LFLX group, n=6) and [5]1.0% Compound A instillation—0.3% LFLX instillation combination group (Compound A—LFLX combination group, n=6) as groups whose therapy was started 1 day after the inoculation (after onset of corneal ulcer), and 50 μl of each substance was given four times a day immediately after the inoculation or 1 day after the inoculation (after onset of corneal ulcer). […]
Each animal was examined for the corneal ulcer every 24 hours after the inoculation and scored in accordance with the rabbit corneal lesion scoring criteria (Barletta J. P. et al., Invest Ophthalmol Vis Sic 37:20-28, 1996) shown in Table 2. […]

[2] = tested on: Pseudomonas aeruginosa-derived endotoxin-induced keratitis; assay: Effect on endotoxin-induced keratitis (rabbit keratitis model, slit lamp scoring); type: in vivo
Method: (§1) The effect of Compound A when given as eye drops was investigated in a rabbit keratitis model using an endotoxin derived from Pseudomonas aeruginosa detected frequently in an ophthalmic infection as well as in a rabbit corneal alkaline erosion model.
(§2) Male Japanese albino rabbits each weighing about 2 to 2.5 kg purchased from FUKUZAKI rabbit-raising association were used. Each animal was maintained at a temperature of 24±4° C. and a humidity of 55±15%.
(§3) Compound A was given as a 1.0% Compound A eye drop formulation prepared by suspending Compound A in a formulation base (0.1% NaH2PO4, 0.1% polysorbate 80 and 0.9% NaCl, pH 5.0). As a positive control, a 0.1% betamethasone eye drop formulation (Rinderon™ solution, Sionogi) was used. In a control group, the formulation base was given.
16 Male Japanese albino rabbits each weighing 2 to 2.5 kg were used. The rabbits were divided into four groups each having 4 animals, which were anesthetized systemically by an intramuscular administration each of 1 ml/kg of an equal volume mixture of 5% ketamine hydrochloride and 2% xylazine hydrochloride. Each 10 μl of a 1% solution of Pseudomonas aeruginosa-derived endotoxin in physiological saline was infused into each corneal stroma of a rabbit. An anterior part of an eye was observed using a slit lamp every 5 days over a period from the day after the endotoxin infusion through the 30th day, and examined for the corneal opacity, the corneal ulcer and the vascularization, which were scored in accordance with the criteria shown in Table 1. Each test substance was started to be instilled immediately after the endotoxin infusion, and then given 4 times a day in the volume of 20 μl every 2 hours.
(§4) Rabbit Keratitis Scoring Criteria
(§5) Corneal opacity^remarks 1)
(§6) * Vascularization^remarks 1)
(§7) 2: ⅔ or more of corneal circumference Remarks 1) Each as score A x score B

[3] = tested on: alkaline erosive keratitis; assay: Effects on alkaline erosive keratitis (rabbit corneal alkaline erosion model, slit lamp scoring); type: in vivo
Method: as §1, §2, §3
16 Male Japanese albino rabbits each weighing 2 to 2.5 kg were used. The rabbits were divided into four groups each having 4 animals, which were anesthetized systemically by an intramuscular administration each of 1 ml/kg of an equal volume mixture of 5% ketamine hydrochloride and 2% xylazine hydrochloride and also locally by an instillation of oxybuprocaine hydrochloride. A filter paper whose diameter was 10 mm and which had been immersed in 2N NaOH was brought into contact with the center of the right cornea of a rabbit for 1 minute to establish an alkaline erosion, and then the eye was rinsed immediately with 10 mL or more of physiological saline. The depth of the corneal ulcer and the vascularization were observed using a slit lamp every 5 days over a period from 5 days after the alkaline erosion through the 30th day, and scored in accordance with the criteria shown in Table 1. Each test substance was started to be instilled immediately after the alkaline erosion, and then given 4 times a day in the volume of 20 μl every 2 hours.
as §4, §5, §6, §7

[4] = instillation started 1 day after the inoculation (after onset of corneal ulcer), vs physiological saline (FIG. 9)

## CCn1cc(C(=O)O)c(=O)c2cc(F)c(N3CCNC(C)C3)c(F)c21 (stereo not drawn) [LFLX, lomefloxacin (LFLX) hydrochloride, reference compound]
[1]; [4]
  corneal ulcer formation: no inhibition of the corneal ulcer formation

## CC(C)(C)C(=O)Oc1ccc(S(=O)(=O)Nc2ccccc2C(=O)NCC(=O)[O-])cc1.O.O.O.O.[Na+] [Compound A, N-[o-(p-pivaloyloxybenzenesulfonyl-amino)benzoyl]glycine monosodium salt tetrahydrate]
[2]; 5 to 30 days after endotoxin infusion, 1.0% eye drop, 4 times a day, vs control group (FIG. 1)
  effect on corneal opacity: inhibitory effects were observed
[2]; 5 to 30 days after endotoxin infusion, 1.0% eye drop, 4 times a day, vs control group (FIG. 2)
  effect on corneal ulcer: inhibitory effects were observed
[2]; 5 to 30 days after endotoxin infusion, 1.0% eye drop, 4 times a day, vs control group (FIG. 3)
  effect on vascularization: inhibitory effects were observed
[2]; 15th day after endotoxin infusion, 1.0% eye drop, 20 μl 4 times a day, statistically significant difference (FIG. 4)
  % inhibition of total keratitis score compared with the control group: 59.4%
[1]; [4]
  corneal ulcer formation: corneal ulcer formation was started to be inhibited 3 days after the inoculation
[1]; instillation started immediately after the inoculation, vs physiological saline, statistically significant difference (FIG. 8)
  corneal ulcer formation: corneal ulcer formation was started to be inhibited 3 days after the inoculation
[3]; 5 to 30 days after corneal alkaline exposure, 1.0% eye drop, 4 times a day (FIG. 5)
  effect on corneal opacity: no effects were noted
[3]; 5 to 30 days after corneal alkaline exposure, 1.0% eye drop, 4 times a day (FIG. 7)
  effect on vascularization: no effects were noted
[3]; 20th day after corneal alkaline exposure, 1.0% eye drop, 4 times a day (FIG. 6)
  effect on corneal ulcer: significant inhibitory effect

## C[C@H]1C[C@H]2[C@@H]3CCC4=CC(=O)C=C[C@]4(C)[C@@]3(F)[C@@H](O)C[C@]2(C)[C@@]1(O)C(=O)COP(=O)(O)O [betamethasone phosphate, reference compound]
[2]; over the observation period (5 to 30 days), 0.1% eye drop, 4 times a day, positive control
  onset of the keratitis: inhibited almost completely
[3]; 15th day after corneal alkaline exposure, 0.1% eye drop, 4 times a day, positive control
  effect on vascularization: significant inhibitory effect
